In PubChem BioAssay AID1963852 (Molecular Pharmacology Branch, DTP, NCI, 2024):

System: 282377-053-R-J1-PDC complex spheroid viability
Test: Anticancer human tumor 282377-053-R-J1-PDC patient-derived colon adenocarcinoma cell line growth inhibition [POLQ]
Settings: for IC50: curve of first compound; for viability, T/C: stronger effect = lower value
Experimental: Multicellular complex tumor spheroid response to Polymerase (POL) inhibitors (novobiocin, ART-558, RP6685) in combination with a variety of drugs and investigational agents in selected tumor cell lines
The POL inhibitors (novobiocin, ART-558, and RP6685) were evaluated both individually and in combination with standard of care and investigational anticancer small molecules within a complex spheroid model of solid tumors. . Complex spheroids include a stromal component modeled by human endothelial cells (HUVEC) and fibroblasts modeled by human mesenchymal stem cells (MSCs). The concentration ranges selected for each drug and investigational agent were based upon clinically achievable concentrations if the clinical Cmax of the agent was known.
Compounds. The drugs and investigational agents: novobiocin (NSC847541), ART-558 (NSC835418), RP-6685 (NSC848927), peposertib (NSC802822), ceralasertib (NSC780249), elimusertib (NSC800525), camonsertib (NSC841442), AZD-1390 (NSC803789), olaparib (NSC753686), talazoparib (NSC767125), rucaparib (NSC756644), sotorasib (NSC818433), MRTX-1133 (NSC836407), SN-38 (NSC673596), topotecan (NSC609699), epotoside (NSC141540), doxorubicin (NSC123127), gemcitabine (NSC613327), 5-fluorouracil (NSC19893), paclitaxel (NSC125973), vemurafenib (NSC761431), MSA-2 (NSC828583), SN-011 (NSC837082), adavosertib (NSC754352), prexasertib (NSC758257), carboplatin (NSC241240) and oxaliplatin (NSC266046), were obtained from the National Cancer Institute (NCI) Developmental Therapeutics Program Chemical Repository (21). The FDA-approved anticancer drug set is available from the Developmental Therapeutics Program at https://dtp.cancer.gov/organization/dscb/obtaining/. […] The stock solutions were prepared in dimethyl sulfoxide (DMSO, Sigma-Aldrich, St. Louis, MO, cat. D2650), except for the platinum compounds which were prepared in saline (Quality Biological, Gaithersburg, MD, cat. 114-055-101), at 800-fold the tested concentration and stored at -70 degrees C prior to their use. All drugs and investigational agents were tested over a range starting from a high concentration at or near the clinical Cmax and decreasing in half-log increments. If the clinical Cmax for an agent had not been determined, the highest concentration tested was 10 microM, except for SN-38, which was tested at a high concentration of 1 microM.
Cell Culture. All cells were maintained in an incubator at 37 degrees C and 5% CO2 with 95% humidity. The PDC lines were cultured according to standard operating procedures established by the NCI PDMR (https://pdmr.cancer.gov). Table 3 of the manuscript, lists the cell lines along with the number of the three cell types plated to form the mct-spheroids and media for tumor cell growth. After thawing, all PDC lines, except 997537-175-T-J1-PDC and 415267-285-R-J2-PDC, were cultured in Matrigel-coated flasks prepared with a working solution of 1X Ham's F-12 nutrient mix, without supplementation (Thermo Fisher Scientific, cat. 11765054), 100 U/mL penicillin-streptomycin (Thermo Fisher Scientific, cat. 15140122), and 2.5% Matrigel (Corning Inc., Corning, NY, cat. 354248) for the first three passages. The two PDC lines 997537-175-T-J1-PDC and 415267-285-R-J2-PDC were cultured on uncoated flasks. The 857933-349-R-J2-PDC line was cultured in 6C/Colon 1B media containing advanced DMEM/F-12 (Thermo Fisher Scientific, cat. 12634028), 10 mM HEPES (Thermo Fisher Scientific, cat. 15630080), 1X GlutaMAX supplement (Thermo Fisher Scientific, cat. 35050061), 0.1 mg/mL primocin (InvivoGen, San Diego, CA, cat. ant-pm-2), 10% defined fetal bovine serum, heat inactivated (HyClone Laboratories Inc., Logan, UT, cat. SH30070.03HI), 50% L-WRN conditioned media (ATCC, cat. CRL-3276), 1.25 mM N-Acetyl-L-cysteine (Sigma-Aldrich, cat. A9165), 10 mM nicotinamide (Sigma-Aldrich, cat. N0636), 1X B-27 supplement (Thermo Fisher Scientific, cat. 17504044), 1X N-2 supplement (Thermo Fisher Scientific, cat. […]

[1] = second compound 0.0316 µM, first compound 0.0316 µM
[2] = second compound 0.0316 µM, first compound 0.1 µM
[3] = second compound 0.0316 µM, first compound 0.316 µM
[4] = second compound 0.0316 µM, first compound 1 µM
[5] = second compound 0.0316 µM, first compound 3.16 µM
[6] = second compound 0.0316 µM, first compound 10 µM
[7] = second compound 0.1 µM, first compound 0.0316 µM
[8] = second compound 0.1 µM, first compound 0.1 µM
[9] = second compound 0.1 µM, first compound 0.316 µM
[10] = second compound 0.1 µM, first compound 1 µM
[11] = second compound 0.1 µM, first compound 3.16 µM
[12] = second compound 0.1 µM, first compound 10 µM
[13] = second compound 0.316 µM, first compound 0.0316 µM
[14] = second compound 0.316 µM, first compound 0.1 µM
[15] = second compound 0.316 µM, first compound 0.316 µM
[16] = second compound 0.316 µM, first compound 1 µM
[17] = second compound 0.316 µM, first compound 3.16 µM
[18] = second compound 0.316 µM, first compound 10 µM
[19] = second compound 1 µM, first compound 0.0316 µM
[20] = second compound 1 µM, first compound 0.1 µM
[21] = second compound 1 µM, first compound 0.316 µM
[22] = second compound 1 µM, first compound 1 µM
[23] = second compound 1 µM, first compound 3.16 µM
[24] = second compound 1 µM, first compound 10 µM
[25] = second compound 3.16 µM, first compound 0.0316 µM
[26] = second compound 3.16 µM, first compound 0.1 µM
[27] = second compound 3.16 µM, first compound 0.316 µM
[28] = second compound 3.16 µM, first compound 1 µM
[29] = second compound 3.16 µM, first compound 3.16 µM
[30] = second compound 3.16 µM, first compound 10 µM
[31] = second compound 10 µM, first compound 0.0316 µM
[32] = second compound 10 µM, first compound 0.1 µM
[33] = second compound 10 µM, first compound 0.316 µM
[34] = second compound 10 µM, first compound 1 µM
[35] = second compound 10 µM, first compound 3.16 µM
[36] = second compound 10 µM, first compound 10 µM
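Note: spheroids exposed to compounds for seven days.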
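Throughout, for viability, T/C: 100% = DMSO vehicle control viability.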

## CC1COCCN1c1cc(C2(S(C)(=N)=O)CC2)nc(-c2ccnc3[nH]ccc23)n1 (stereo unspecified) + Nc1ccc(C#CCN(C(=O)Cc2ncc(C(F)(F)F)cc2C(F)(F)F)c2ccc(F)cc2)nn1
Second compound 0.0316 µM
  IC50: > 10 µM
Second compound 0.1 µM
  IC50: > 10 µM
Second compound 0.316 µM
  IC50: > 10 µM
Second compound 1 µM
  IC50: > 10 µM
Second compound 3.16 µM
  IC50: > 10 µM
Second compound 10 µM
  IC50: > 10 µM
[1]
  viability, T/C: 117%
[2]
  viability, T/C: 96.5%
[3]
  viability, T/C: 90.7%
[4]
  viability, T/C: 86.2%
[5]
  viability, T/C: 73.6%
[6]
  viability, T/C: 54.6%
[7]
  viability, T/C: 99.2%
[8]
  viability, T/C: 106%
[9]
  viability, T/C: 93.1%
[10]
  viability, T/C: 79.8%
[11]
  viability, T/C: 78.7%
[12]
  viability, T/C: 58.5%
[13]
  viability, T/C: 116%
[14]
  viability, T/C: 101%
[15]
  viability, T/C: 93.1%
[16]
  viability, T/C: 81.5%
[17]
  viability, T/C: 80%
[18]
  viability, T/C: 59.7%
[19]
  viability, T/C: 112%
[20]
  viability, T/C: 90.9%
[21]
  viability, T/C: 84.7%
[22]
  viability, T/C: 91.7%
[23]
  viability, T/C: 75.1%
[24]
  viability, T/C: 70.3%
[25]
  viability, T/C: 116%
[26]
  viability, T/C: 101%
[27]
  viability, T/C: 91.4%
[28]
  viability, T/C: 92.4%
[29]
  viability, T/C: 76.1%
[30]
  viability, T/C: 57.5%
[31]
  viability, T/C: 96.5%
[32]
  viability, T/C: 119%
[33]
  viability, T/C: 106%
[34]
  viability, T/C: 95%
[35]
  viability, T/C: 93%
[36]
  viability, T/C: 72.4%

## CCc1cc2c(N3CCc4c(cc(Cn5ccnc5)cc4-c4cn(C)nc4C(F)(F)F)C3=O)ccnc2c(OC)n1 + Nc1ccc(C#CCN(C(=O)Cc2ncc(C(F)(F)F)cc2C(F)(F)F)c2ccc(F)cc2)nn1
Second compound 0.0316 µM
  IC50: > 10 µM
Second compound 0.1 µM
  IC50: > 10 µM
Second compound 0.316 µM
  IC50: > 10 µM
Second compound 1 µM
  IC50: > 10 µM
Second compound 3.16 µM
  IC50: > 10 µM
Second compound 10 µM
  IC50: > 10 µM
[1]
  viability, T/C: 92.7%
[2]
  viability, T/C: 98.8%
[3]
  viability, T/C: 102%
[4]
  viability, T/C: 106%
[5]
  viability, T/C: 94.1%
[6]
  viability, T/C: 111%
[7]
  viability, T/C: 75.9%
[8]
  viability, T/C: 73.9%
[9]
  viability, T/C: 72.2%
[10]
  viability, T/C: 77.1%
[11]
  viability, T/C: 107%
[12]
  viability, T/C: 115%
[13]
  viability, T/C: 90.3%
[14]
  viability, T/C: 78.8%
[15]
  viability, T/C: 86.3%
[16]
  viability, T/C: 90.1%
[17]
  viability, T/C: 111%
[18]
  viability, T/C: 87.4%
[19]
  viability, T/C: 104%
[20]
  viability, T/C: 75.7%
[21]
  viability, T/C: 84.1%
[22]
  viability, T/C: 90.5%
[23]
  viability, T/C: 102%
[24]
  viability, T/C: 108%
[25]
  viability, T/C: 103%
[26]
  viability, T/C: 92.7%
[27]
  viability, T/C: 88.8%
[28]
  viability, T/C: 109%
[29]
  viability, T/C: 96.7%
[30]
  viability, T/C: 123%
[31]
  viability, T/C: 95.5%
[32]
  viability, T/C: 106%
[33]
  viability, T/C: 113%
[34]
  viability, T/C: 108%
[35]
  viability, T/C: 138%
[36]
  viability, T/C: 127%

## COc1cc(C2c3cc4c(cc3C(OC3OC5COC(C)OC5C(O)C3O)C3COC(=O)C23)OCO4)cc(OC)c1O (stereo unspecified) + Nc1ccc(C#CCN(C(=O)Cc2ncc(C(F)(F)F)cc2C(F)(F)F)c2ccc(F)cc2)nn1
Second compound 0.0316 µM
  IC50: > 10 µM
Second compound 0.1 µM
  IC50: > 10 µM
Second compound 0.316 µM
  IC50: > 10 µM
Second compound 1 µM
  IC50: > 10 µM
Second compound 3.16 µM
  IC50: > 10 µM
Second compound 10 µM
  IC50: > 10 µM
[1]
  viability, T/C: 113%
[2]
  viability, T/C: 88.9%
[3]
  viability, T/C: 116%
[4]
  viability, T/C: 114%
[5]
  viability, T/C: 109%
[6]
  viability, T/C: 108%
[7]
  viability, T/C: 100%
[8]
  viability, T/C: 97.8%
[9]
  viability, T/C: 83.5%
[10]
  viability, T/C: 94.3%
[11]
  viability, T/C: 98%
[12]
  viability, T/C: 87.3%
[13]
  viability, T/C: 93.1%
[14]
  viability, T/C: 99.3%
[15]
  viability, T/C: 75.8%
[16]
  viability, T/C: 99.7%
[17]
  viability, T/C: 96.6%
[18]
  viability, T/C: 93.5%
[19]
  viability, T/C: 88.6%
[20]
  viability, T/C: 98.6%
[21]
  viability, T/C: 107%
[22]
  viability, T/C: 121%
[23]
  viability, T/C: 113%
[24]
  viability, T/C: 83%
[25]
  viability, T/C: 118%
[26]
  viability, T/C: 102%
[27]
  viability, T/C: 119%
[28]
  viability, T/C: 127%
[29]
  viability, T/C: 92.5%
[30]
  viability, T/C: 91.9%
[31]
  viability, T/C: 107%
[32]
  viability, T/C: 122%
[33]
  viability, T/C: 139%
[34]
  viability, T/C: 146%
[35]
  viability, T/C: 115%
[36]
  viability, T/C: 106%
